Measurements from patent US20060281700A1, “SYNERGISTIC MODULATION OF FLT3 KINASE USING AMINOPYRIMIDINES KINASE MODULATORS” (priority 2005, published 2006).

How the values were obtained:
[1] = biological target: T1, isolated kinase domain of the human FLT3 receptor (a.a. 571-993) (Homo sapiens, UniProt P36888); assay: FLT3 Fluorescence Polarization Kinase Assay; assay type: biochemical; settings: 10 nM FLT3 571-993, 150 uM ATP; uncertainty ±10%
T1 construct: isolated kinase domain of the human FLT3 receptor (a.a. 571-993)
T1 sequence (P36888 571-993): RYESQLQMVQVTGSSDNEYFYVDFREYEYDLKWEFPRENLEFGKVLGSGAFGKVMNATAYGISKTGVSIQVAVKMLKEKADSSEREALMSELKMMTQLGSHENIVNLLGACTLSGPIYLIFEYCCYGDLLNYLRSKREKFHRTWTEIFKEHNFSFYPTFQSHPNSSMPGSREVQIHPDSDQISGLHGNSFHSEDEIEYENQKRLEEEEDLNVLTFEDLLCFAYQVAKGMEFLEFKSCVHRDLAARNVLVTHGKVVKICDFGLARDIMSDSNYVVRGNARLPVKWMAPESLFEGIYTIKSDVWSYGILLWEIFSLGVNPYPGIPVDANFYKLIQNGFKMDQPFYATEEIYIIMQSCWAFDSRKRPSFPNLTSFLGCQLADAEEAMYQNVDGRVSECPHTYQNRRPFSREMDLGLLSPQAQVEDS
Description: FLT3 Fluorescence Polarization Kinase Assay
To determine the activity of the FLT3 inhibitors of Formula I′ in an in vitro kinase assay, inhibition of the isolated kinase domain of the human FLT3 receptor (a.a. 571-993) was performed using the following fluorescence polarization (FP) protocol. The FLT3 FP assay utilizes the fluorescein-labeled phosphopeptide and the anti-phosphotyrosine antibody included in the Panvera Phospho-Tyrosine Kinase Kit (Green) supplied by Invitrogen. When FLT3 phosphorylates polyGlu4Tyr, the fluorescein-labeled phosphopeptide is displaced from the anti-phosphotyrosine antibody by the phosphorylated poly Glu4Tyr, thus decreasing the FP value. The FLT3 kinase reaction is incubated at room temperature for 30 minutes under the following conditions: 10 nM FLT3 571-993, 20 ug/mL poly Glu4Tyr, 150 uM ATP, 5 mM MgCl2, 1% compound in DMSO. The kinase reaction is stopped with the addition of EDTA. The fluorescein-labeled phosphopeptide and the anti-phosphotyrosine antibody are added and incubated for 30 minutes at room temperature.
All data points are an average of triplicate samples. Inhibition and IC50 data analysis was done with GraphPad Prism using a non-linear regression fit with a multiparamater, sigmoidal dose-response (variable slope) equation.

[2] = system: MV4-11 cells; assay: Inhibition of MV4-11 cell proliferation (CellTiterGlo, 72 hours); assay type: cell-based; settings: Homo sapiens; 72 hours growth; uncertainty ±20%
Description: Inhibition Of MV4-11 and Baf3 Cell Proliferation
To assess the cellular potency of the FLT3 inhibitors of Formula I′, FLT3 specific growth inhibition was measured in the leukemic cell line MV4-11 (ATCC Number: CRL-9591). […] MV4-11 cells cannot grow and survive without active FLT3ITD.
To measure proliferation inhibition by test compounds, the luciferase based CellTiterGlo reagent (Promega), which quantifies total cell number based on total cellular ATP concentration, was used. Cells are plated at 10,000 cells per well in 100 ul of in RPMI media containing penn/strep, 10% FBS and 1 ng/ml GM-CSF or 1 ng/ml IL-3 for MV4-11 and Baf3 cells respectively.
Compound dilutions or 0.1% DMSO (vehicle control) are added to cells and the cells are allowed to grow for 72 hours at standard cell growth conditions (37° C., 5% CO2). For activity measurements in MV4-11 cells grown in 50% plasma, cells were plated at 10,000 cells per well in a 1:1 mixture of growth media and human plasma (final volume of 100 μL). To measure total cell growth an equal volume of CellTiterGlo reagent was added to each well, according to the manufacturer's instructions, and luminescence was quantified. Total cell growth was quantified as the difference in luminescent counts (relative light units, RLU) of cell number at Day 0 compared to total cell number at Day 3 (72 hours of growth and/or compound treatment). One hundred percent inhibition of growth is defined as an RLU equivalent to the Day 0 reading. Zero percent inhibition was defined as the RLU signal for the DMSO vehicle control at Day 3 of growth. All data points are an average of triplicate samples. […] Inhibition and IC50 data analysis was done with GraphPad Prism using a non-linear regression fit with a multiparamater, sigmoidal dose-response (variable slope) equation.
MV4-11 cells express the FLT3 internal tandem duplication mutation, and thus are entirely dependent upon FLT3 activity for growth. […] In contrast, the Baf3 cell proliferation is driven by the cytokine IL-3 and thus are used as a non-specific toxicity control for test compounds.

SMILES | IC50 [1] | IC50 [2]
CC(C)Oc1ccc(NC(=O)OC2CCN(c3ncnc(N)c3/C=N/OCCN3CCOCC3)CC2)cc1 [Number 3, (4-Isopropoxy-phenyl)-carbamic acid 1-{6-amino-5-[(2-morpholin-4-yl-ethoxyimino)-methyl]-pyrimidin-4-yl}-piperidin-4-yl ester] | 0.82 µM | 2.8 µM
CO/N=C/c1c(N)ncnc1N1CCC(NC(=O)Cc2ccc(C(C)C)cc2)CC1 [Number 16, N-{1-[6-Amino-5-(methoxyimino-methyl)-pyrimidin-4-yl]-piperidin-4-yl}-2-(4-isopropyl-phenyl)-acetamide] | 1.8 µM | 1.4 µM

The remaining lines, values ahead:

IC50 [1] | IC50 [2] | SMILES
0.198 µM | 1.1 µM | CO/N=C/c1c(N)ncnc1N1CCC(NC(=O)Nc2ccc(N3CCCC3)cc2)CC1 [Number 24, 1-{1-[6-Amino-5-(methoxyimino-methyl)-pyrimidin-4-yl]-piperidin-4-yl}-3-(4-pyrrolidin-1-yl-phenyl)-urea]
> 10 µM | 1.7 µM | CC(C)c1ccc(NC(=O)NC2CCN(c3ncnc(N)c3/C=N/OCCN)C2)cc1 (stereo not shown) [Number 27, 1-(1-{6-Amino-5-[(2-amino-ethoxyimino)-methyl]-pyrimidin-4-yl}-pyrrolidin-3-yl)-3-(4-isopropyl-phenyl)-urea]
4.7 µM | 0.209 µM | CO/N=C/c1c(N)ncnc1N1CCC(NC(=O)Nc2ccc(C(C)C)cc2)C1 (stereo not shown) [Number 30, 1-{1-[6-Amino-5-(methoxyimino-methyl)-pyrimidin-4-yl]-pyrrolidin-3-yl}-3-(4-isopropyl-phenyl)-urea]
